Consider 1 compound from PMC11017246, “Discovery of GLPG2737, a Potent Type 2 Corrector of CFTR for the Treatment of Cystic Fibrosis in Combination with a Potentiator and a Type 1 Co-corrector” (Journal of Medicinal Chemistry, 2024).

Where two headings read alike, the source gives them in different places.

Series [1] is described as follows: Hepatocyte stability, mouse. Particulars: mouse hepatocytes. The format is in vitro ADME. The protocol:
(§1) The hepatocyte stability assay was performed by incubation of test compound at 1 μM, 0.03% DMSO in modified Krebs–Henseleit buffer with suspension of pooled cryopreserved hepatocytes (BioIVT, Hicksville, NY, USA) from mouse, rat, dog, or human (BioIVT, Hicksville, NY, USA) at 0.5 million viable hepatocytes/mL. Before adding the hepatocytes (time zero) and after 10, 20, 45, 90, 120, and 180 min of incubation (n = 2) at 37 °C while gently shaking, the reaction was stopped and proteins were precipitated with an excess of acetonitrile containing an internal standard. The samples were mixed, centrifuged, and filtered, and the supernatant was analyzed by liquid chromatography–mass spectrometry/mass spectrometry (LC–MS/MS). The instrument responses (peak areas/IS peak areas) were referenced to the zero-time point samples (considered as 100%) in order to determine the percentage of compound remaining.

The subject of series [2] is patients with CF homozygous for ΔF508. Details: method as in PMID 31594690. Particulars: patients receiving ivacaftor/lumacaftor; cited from earlier work.
The nature of series [3]: Measured pKa (potentiometric and UV methods). The class given is physicochemical. Particulars: measured at Charles River.
A short description of series [4]: Hepatocyte stability, monkey. The format is in vitro ADME. The following applies: monkey hepatocytes. The protocol: as §1
Another series has as its target T1, (h)H1 (Homo sapiens, UniProt P35367).
T1 construct: purchased Eurofins
Briefly: Radioligand binding, (h)H1 (Eurofins panel). The following applies: read-out: IC50, inhibition of radioligand binding to (h)H1.

A further series has as its target T2, CYP1A2 (Homo sapiens, UniProt P05177).
T2 construct: tissue BD Gentest; host or cells: human liver microsomes
T2 sequence (P05177 1-516): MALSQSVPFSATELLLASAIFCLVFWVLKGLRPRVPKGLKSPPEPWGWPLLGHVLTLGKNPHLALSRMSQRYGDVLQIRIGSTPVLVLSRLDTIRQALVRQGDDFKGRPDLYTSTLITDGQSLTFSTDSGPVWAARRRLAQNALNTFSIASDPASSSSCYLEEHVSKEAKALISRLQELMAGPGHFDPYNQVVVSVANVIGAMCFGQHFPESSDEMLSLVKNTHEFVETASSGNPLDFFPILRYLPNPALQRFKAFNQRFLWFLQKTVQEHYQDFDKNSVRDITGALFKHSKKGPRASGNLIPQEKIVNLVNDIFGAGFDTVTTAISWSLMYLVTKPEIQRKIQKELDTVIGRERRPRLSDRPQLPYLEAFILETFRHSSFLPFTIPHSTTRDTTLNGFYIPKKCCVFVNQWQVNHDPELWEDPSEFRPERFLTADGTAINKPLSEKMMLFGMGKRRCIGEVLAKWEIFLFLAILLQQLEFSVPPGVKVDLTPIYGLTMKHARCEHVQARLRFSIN
Nature of the series: CYP reversible inhibition in HLM, CYP1A2. The following applies: probe phenacetin. The class given is in vitro ADME. As for the experimental part:
(§2) Test compounds were diluted in methanol and then added to mixture containing 50 mM potassium phosphate buffer, pH 7.4, human liver microsomes (BD Gentest) and probe substrate. After prewarming for 5 min at 37 °C, the reaction was started by adding cofactor mix (7.65 mg/mL glucose-6-phosphate, 1.7 mg/mL NADP, 6 U/mL of glucose-6-phosphate dehydrogenase), resulting in seven final concentrations of test compounds in the range 0.14–100 μM (2% methanol). Isoform specific conditions regarding probe substrate and microsomal protein concentrations are available in Table 2. Final concentrations of cofactor mix components were as follows: 1.56 mg/mL glucose-6-phosphate, 0.34 mg/mL NADP, and 1.2 U/mL glucose-6-phosphate dehydrogenase. After incubation at 37 °C, the reaction was terminated with acetonitrile:methanol (2:1) solution with internal standard. Samples were centrifuged, and the supernatant fractions were analyzed by LC-MS/MS. The instrument responses (test compounds and internal standard peak areas) were referenced to those for solvent controls (assumed as 100%) in order to determine the percentage reduction in probe metabolism. Percent of control activity vs concentration plots were generated and fitted using GraphPad Prism software to generate IC50.

The subject of a further series is CYP3A4. Briefly: CYP reversible inhibition in HLM, CYP3A4. The following applies: human, human liver microsomes. The format is in vitro ADME. The protocol:
as §2

For the next series, the target named is T3, CYP2C9 (Homo sapiens, UniProt P11712).
T3 construct: tissue BD Gentest; host or cells: human liver microsomes
T3 sequence (P11712 whole entry): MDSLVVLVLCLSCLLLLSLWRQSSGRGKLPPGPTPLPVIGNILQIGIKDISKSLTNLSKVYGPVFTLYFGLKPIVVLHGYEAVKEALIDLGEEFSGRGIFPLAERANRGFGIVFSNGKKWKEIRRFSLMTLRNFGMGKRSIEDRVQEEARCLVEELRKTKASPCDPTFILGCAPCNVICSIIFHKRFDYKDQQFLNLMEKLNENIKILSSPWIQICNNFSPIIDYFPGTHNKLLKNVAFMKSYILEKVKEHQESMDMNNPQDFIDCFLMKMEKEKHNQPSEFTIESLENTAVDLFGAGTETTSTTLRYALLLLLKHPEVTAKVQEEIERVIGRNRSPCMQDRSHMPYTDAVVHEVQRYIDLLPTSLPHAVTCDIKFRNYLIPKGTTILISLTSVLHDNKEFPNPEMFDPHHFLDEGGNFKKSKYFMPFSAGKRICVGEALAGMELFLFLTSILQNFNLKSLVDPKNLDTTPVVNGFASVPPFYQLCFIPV
Nature of the series: CYP reversible inhibition in HLM, CYP2C9. The format is in vitro ADME. Particulars: probe diclofenac; read-out: CYP inhibition in HLM IC50, CYP2C9. The protocol: as §2

Series [5] is described as follows: Liver microsomal stability, human. The format is in vitro ADME. The following applies: human; matrix not given; read-out: Clintr,unbound human (converted). The protocol: (§3) The microsomal stability assay was performed by incubation of test compound at 1 μM, 0.2% DMSO in phosphate buffer with microsomes (0.5 mg/mL) from mouse, rat, dog, or human (Xeno-Tech, Kansas City, KS, USA), and cofactors with final concentrations of 0.6 U/mL glucose-6- phosphate dehydrogenase, 3.3 mM MgCl2, 3.3 mM glucose-6-phosphate, and 1.3 mM nicotinamide adenine dinucleotide phosphate (NADP)+. Before addition of the microsomes (time zero) and after 30 min of incubation at 37 °C with shaking, the reaction was stopped, and proteins were precipitated with an excess of acetonitrile containing an internal standard. The samples were mixed, centrifuged, and filtered, and the supernatant was analyzed by liquid chromatography–mass spectrometry/mass spectrometry (LC–MS/MS). The instrument responses (peak areas/IS peak areas) were referenced to the zero-time point samples (considered as 100%) to determine the percentage of compound remaining. In vitro unbound intrinsic clearance (CLint,u) was calculated from the half-life using the following equations: [drawing 1] [drawing 2] To take into account nonspecific binding, scaled CLint values were corrected with the fraction unbound in microsomes (fu, mic). [drawing 3]
(§4) Equilibrium dialysis is a technique used to measure microsomal binding. Briefly, the assay was performed in a 96-well Teflon dialysis unit (Dialysis Device), where each well consists of two chambers separated by a dialysis membrane (membrane strips, MW cutoff 12–14 kDa, HTDialysis). Inactivated liver microsomes (pooled human liver microsomes, Xenotech, protein concentration of 0.5 mg/mL) spiked with a compound (1 μM final concentration, 0.5% DMSO) were added to one chamber and buffer solution (50 mM PBS Buffer) was added to the other side of the well. Each compound was analyzed in duplicate for 4 h at 37 °C. At the end of incubation, both chambers were sampled and analyzed by LC-MS/MS. The unbound microsomal fraction (fu, mic) was calculated as the concentration in buffer divided by the total concentration in the microsomal side. Positive controls included in this assay are terfenadine and verapamil.

Series [6] is described as follows: Liver microsomal stability, rat. The class given is in vitro ADME. The following applies: rat; matrix not given; read-out: Clintr,unbound rat (converted). The protocol: as §3, §4
For orientation: Liver microsomes are vesicles of endoplasmic reticulum, rich in cytochrome P450 enzymes.

T1 sequence (P35367 whole entry): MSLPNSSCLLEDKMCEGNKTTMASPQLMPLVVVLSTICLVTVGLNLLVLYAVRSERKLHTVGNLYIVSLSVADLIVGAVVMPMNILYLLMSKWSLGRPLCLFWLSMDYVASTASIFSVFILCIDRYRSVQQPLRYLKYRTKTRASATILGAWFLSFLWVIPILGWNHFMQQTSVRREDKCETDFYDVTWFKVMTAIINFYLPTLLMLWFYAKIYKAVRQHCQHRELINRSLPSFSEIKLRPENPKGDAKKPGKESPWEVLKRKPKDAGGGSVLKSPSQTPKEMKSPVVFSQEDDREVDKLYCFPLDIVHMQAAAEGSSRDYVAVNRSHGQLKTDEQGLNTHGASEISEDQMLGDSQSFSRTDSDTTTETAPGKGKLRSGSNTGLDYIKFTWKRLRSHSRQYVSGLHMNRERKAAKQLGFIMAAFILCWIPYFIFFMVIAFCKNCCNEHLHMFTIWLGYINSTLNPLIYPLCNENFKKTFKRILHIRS

With `COC1CCN(C2CCN(c3cc(C(=O)NS(=O)(=O)N(C)C)nc4c3c(C3CCC3)nn4-c3ccc(F)cc3)CC2)CC1` [Compound 52, 3-Cyclobutyl-N-(N,N-dimethylsulfamoyl)-1-(4-fluorophenyl)-4-(4-methoxy-[1,4′-bipiperidin]-1′-yl)-1H-pyrazolo[3,4-b]pyridine-6-carboxamide], the “Hepatocyte stability: %LBF mouse” value in series [1] is 24 %LBF. In addition, the “Hepatocyte stability: predicted hepCl mouse” value in [1] (1 µM) is 31.7 mL/min/kg. Besides, the efficacy versus placebo entry in series [2] is “improved efficacy versus placebo”. Besides, the tolerability result in series [2] is “well tolerated”. The pKa came out at 4.74 in series [3] (UV method, read-out: measured acylsulfonamyl pKa); 8.51 in series [3] (UV method, read-out: measured piperidine pKa); 4.96 in series [3] (potentiometric method, read-out: measured acylsulfonamyl pKa); 8.42 in series [3] (potentiometric method, read-out: measured piperidine pKa). In addition, the “Hepatocyte stability: %LBF monkey” value in series [4] was 65 %LBF. In addition, the “Hepatocyte stability: predicted hepCl monkey” value in series [4] (1 µM) was 28.8 mL/min/kg. Further, the IC50 on (h)H1 was 8 µM; against CYP1A2, > 100 µM; in the series with CYP3A4 (pH 7.4, probe midazolam), > 100 µM; in the series with CYP3A4 (pH 7.4, probe testosterone), > 100 µM; on CYP2C9, 1.4 µM. Besides, the results for the CLint scaled at 1 μM in series [5] and in series [6] were 66.7 mL/min/kg and 82.3 mL/min/kg, respectively. For the same compound, the mutagenicity entry in “Ames II test” is recorded as “not mutagenic”.

In general, pKa refers to the negative logarithm of the acid dissociation constant. A word on the IC50: it is the concentration that inhibits the measured activity by half.
